Results from article PMC11945486, “TAS1R2/TAS1R3 Single-Nucleotide Polymorphisms Affect Sweet Taste Receptor Activation by Sweeteners: The SWEET Project” (Nutrients, 2025).

Target: T1, human TAS1R2-A574T (subunit alone) (Homo sapiens, UniProt Q8TE23, A574T)
T1 construct: expressed in transfected cells; host or cells: HEK293T-Gα16gust44
T1 sequence (Q8TE23 20-839 A574T): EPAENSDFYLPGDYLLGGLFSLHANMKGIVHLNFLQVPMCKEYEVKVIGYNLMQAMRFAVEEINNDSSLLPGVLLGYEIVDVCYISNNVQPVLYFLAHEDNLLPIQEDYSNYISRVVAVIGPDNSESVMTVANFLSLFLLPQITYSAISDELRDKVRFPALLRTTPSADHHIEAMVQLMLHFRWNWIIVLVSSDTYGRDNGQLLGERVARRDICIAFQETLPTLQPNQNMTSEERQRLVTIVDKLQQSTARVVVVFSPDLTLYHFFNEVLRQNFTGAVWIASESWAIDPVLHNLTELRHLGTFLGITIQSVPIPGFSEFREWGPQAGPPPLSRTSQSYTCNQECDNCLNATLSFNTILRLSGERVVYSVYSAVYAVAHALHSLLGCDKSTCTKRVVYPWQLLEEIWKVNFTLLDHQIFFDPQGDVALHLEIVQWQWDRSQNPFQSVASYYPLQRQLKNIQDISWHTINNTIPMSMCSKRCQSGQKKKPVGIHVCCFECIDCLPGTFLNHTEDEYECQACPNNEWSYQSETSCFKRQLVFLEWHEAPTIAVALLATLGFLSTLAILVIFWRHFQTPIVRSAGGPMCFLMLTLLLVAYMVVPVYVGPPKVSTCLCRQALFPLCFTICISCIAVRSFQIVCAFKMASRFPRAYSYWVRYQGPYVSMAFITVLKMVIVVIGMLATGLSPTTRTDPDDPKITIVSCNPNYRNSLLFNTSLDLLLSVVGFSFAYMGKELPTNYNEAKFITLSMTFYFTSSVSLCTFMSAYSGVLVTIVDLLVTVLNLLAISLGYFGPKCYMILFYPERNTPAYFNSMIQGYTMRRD
Assay: Calcium mobilisation assay, TAS1R2-A574T subunit alone
Type: cell-based
Source text: The coding sequences for TAS1R2 and TAS1R3 were commercially synthesised, and the human codon was optimised for expression in human cells. The coding sequences of human TAS1R2 and TAS1R3 were subcloned and inserted into the mammalian expression vectors pcDNA6/myc-HisA and pcDNA4/myc-HisA (Invitrogen; Thermo Fisher Scientific; Illkirch, France) between the EcoRI and NotI restriction sites, generating the plasmids pcDNA6-TAS1R2 and pcDNA4-TAS1R3, respectively. To increase protein expression in mammalian cells, an upstream start codon was used, which was a sequence called MAX, corresponding to the QBI SP163 element also described in pcDNA4-HisMax (Invitrogen; Thermo Fisher Scientific; Illkirch, France). To measure the expression level of the receptor by immunohistochemistry, we used the FLAG sequence ([…]) in the C-terminal position, which encodes the FLAG tag epitope. […]
The HEK293T cells were kindly provided by Jay P. Slack (Givaudan Flavors Corporation; Cincinnati, OH, USA). […] The fluorescence intensity was measured for 90 s (excitation 488 nm, emission 510 nm) in an automated fluorometric FlexStation®3 Multi-Mode microplate reader (Molecular Devices; San Jose, CA, USA). […] The Ca^2+ changes were expressed as fractional changes in fluorescent light intensity: ΔF/F = (F − F0)/F0, where F was the fluorescent light intensity at each point, and F0 was the value of emitted fluorescent light prior to stimulus application. To calculate dose–response relationships, the changes in fluorescence upon stimulus application were averaged, mock-subtracted and baseline-corrected. […] The half-maximal effective concentrations (EC50 values) and maximal signal amplitudes were calculated using SigmaPlot software (version 15.0) (Systat Software; San Jose, CA, USA).
For in vitro calcium mobilisation assay performed on hTAS1R2-SNPs, hTAS1R3-SNPs and mTAS1R3-I60T, 6 to 7 concentrations were tested for each sweet compound, plus buffer alone. All concentration–receptor combinations were measured in duplicate, and each experiment was repeated at least 4 times (8 wells/concentration). […]

EC50: 85.3 ± 12.4 µM | R1 = Variant EC50/WT EC50: 0.9 | Max ΔF/F0 (maximal signal amplitude): 0.25 ± 0.01
SMILES: C=C(C)[C@@H]1CC=C(/C=N/O)CC1 [Perillartine, perillartine]
